Experimental data as given in US9487489B2, “Halogen-substituted pyrazole derivatives as pest-control agents” (BAYER CROPSCIENCE AKTIENGESELLSCHAFT, priority 2013, dated 2016).

Columns and labels:
[1] = system: adult cat fleas (Ctenocephalides felis); test: Ctenocephalides felis oral test (CTECFE); assay type: in vivo; conditions: application rate 100 ppm in citrated cattle blood; after 2 days
Procedure, shortened: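 Mortality read at 2 days as percent of fleas killed. Compound predissolved in DMSO, diluted into citrated cattle blood and offered to roughly 20 unfed adult C. felis via parafilm membrane feeder.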

[2] = system: southern root-knot nematode (Meloidogyne incognita); test: Meloidogyne incognita test (MELGIN); assay type: in vivo; conditions: application rate 20 ppm; lettuce; after 14 days
Protocol: K. Meloidogyne incognita Test (MELGIN)
Solvent: 125.0 parts by weight of acetone
To prepare a suitable active compound preparation, 1 part by weight of active compound is mixed with the stated amount of solvent and the concentrate is diluted with water to the desired concentration.
Vessels are filled with sand, active compound solution, an egg/larvae suspension of the southern root-knot nematode (Meloidogyne incognita) and lettuce seeds. The lettuce seeds germinate and the plants develop. On the roots, galls are formed.
After 14 days, the nematicidal efficacy in % is determined by the formation of galls. 100% means that no galls have been found; 0% means that the number of galls on the treated plants corresponds to the untreated control.

[3] = system: cattle ticks (Boophilus microplus) Parkhurst strain, SP-resistant; test: Boophilus microplus dip test (BOOPMI Dip); assay type: in vivo; conditions: application rate 100 ppm, assessed after 7 days
Procedure, shortened: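 Adult engorged female SP-resistant Parkhurst ticks (8–10) were fully immersed in compound diluted in water from a DMSO solution, then kept in a climate-controlled room. After 7 days, fertile egg-laying was scored, with larval hatching checked at about 42 days; 100% efficacy means no fertile eggs.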

[4] = system: caterpillars of the armyworm (Spodoptera frugiperda); test: Spodoptera frugiperda spray test (SPODFR); assay type: in vivo; conditions: application rate 500 g/ha; maize leaf discs; after 7 days
Procedure, shortened: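 Percent kill read at day 7 on caterpillar-infested maize leaf discs. Discs were first sprayed with aqueous emulsifier-containing (1000 ppm) preparations made from acetone/dimethylformamide solutions, and dried. Scale: 0% none dead, 100% all dead.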

[5] = system: adult cat fleas (Ctenocephalides felis); test: Ctenocephalides felis in vitro contact test with adult cat fleas (T1); conditions: after 48 h
Procedure, shortened: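 Adult cat fleas (Ctenocephalides felis), 5-10 per tube, were exposed to the inner surface of 25 ml test tubes coated with compound in acetone. Tubes were incubated lying flat under ambient conditions. Efficacy was then read by standing tubes upright and knocking the fleas to the floor. Fleas that stayed motionless or moved uncoordinatedly counted as dead or moribund, where 100% means all fleas dead or moribund and 0% means none harmed.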

[6] = system: larvae of the mustard beetle (Phaedon cochleariae); test: Phaedon cochleariae spray test (PHAECO); assay type: in vivo; conditions: application rate 500 g/ha; Chinese cabbage leaf discs; after 7 days
Procedure, shortened: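 Kill of mustard beetle larvae is read as % mortality 7 days after spraying. Spray liquid: active compound in acetone plus dimethylformamide, brought up with water holding 1000 ppm alkylaryl polyglycol ether emulsifier and diluted further in emulsifier-water.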

[7] = system: L1 larvae of the Australian sheep blowfly (Lucilia cuprina); test: Lucilia cuprina test (LUCICU); assay type: in vivo; conditions: application rate 100 ppm; after 2 days
Procedure, shortened: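 Percent mortality read at 2 days; 100% = all larvae killed, 0% = none. Test compound, predissolved in DMSO and water-diluted to the wanted level, was mixed into minced horsemeat holding roughly 20 first-instar larvae.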

[8] = system: adult houseflies (Musca domestica); test: Musca domestica test (MUSCDO); assay type: in vivo; conditions: application rate 100 ppm; after 2 days
Procedure, shortened: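 Groups of 10 adult Musca domestica exposed to a sugar-soaked sponge treated with the water-diluted DMSO preparation of compound at the chosen concentration. Percent kill read at day 2, where 0% means no flies killed and 100% all killed.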

[9] = system: engorged adult female cattle ticks (Boophilus microplus); test: Boophilus microplus injection test (BOOPMI Inj); assay type: in vivo; conditions: application rate 20 μg/animal; injection into abdomen; assessed after 7 days
Procedure, shortened: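 Efficacy is read at 7 days as fertile egg laying (100% = no fertile eggs laid; 0% = all eggs fertile), with eggs of unclear fertility stored until larvae hatch at about 42 days. Five engorged adult females per dose each receive an abdominal injection of 1 μl compound dissolved in DMSO.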

[10] = system: adult dog ticks (Rhipicephalus sanguineus); test: Rhipicephalus sanguineus in vitro contact test with adult brown dog ticks (T2); conditions: after 48 h
Procedure, shortened: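 Acetone solutions coated onto test tube walls and floor, giving 5 μg/cm^2 at 900 ppm. Five to ten adult ticks held per tube in the dark at room temperature for 48 h, then heated at 45-50° C for up to 5 min; efficacy is the percentage of dead or moribund ticks unable to climb away.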

[11] = system: greenhouse red spider mite (Tetranychus urticae); test: Tetranychus urticae spray test, OP-resistant (TETRUR); assay type: in vivo; conditions: application rate 500 g/ha; bean leaf discs; after 6 days
Procedure, shortened: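 Percent kill, scored 6 days post-spray (0% = none dead, 100% = all dead), on Phaseolus vulgaris leaf discs infested with every life stage of the OP-resistant spider mite. Compound dissolved in acetone plus DMF, diluted to test concentration with emulsifier-containing water (1000 ppm).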

[12] = system: green peach aphid (Myzus persicae); test: Myzus persicae spray test (MYZUPE); assay type: in vivo; conditions: application rate 500 g/ha; Chinese cabbage leaf discs; after 6 days
Procedure, shortened: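 Chinese cabbage leaf discs infested with all aphid stages sprayed with compound in acetone/DMF with alkylaryl polyglycol ether emulsifier in water. Efficacy (% aphids killed; 100% all dead, 0% none) scored after 6 days.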

SMILES	efficacy (kill in %) [1]	nematicidal efficacy in % (formation of galls) [2]	efficacy (laying of fertile eggs) [3]	efficacy in % [4]	efficacy (dead or moribund fleas) ([5]; application rate 1 μg/cm^2)	efficacy (dead or moribund fleas) ([5]; application rate 5 μg/cm^2)	efficacy in % [6]	efficacy (kill in %) [7]	efficacy (kill in %) [8]	efficacy (laying of fertile eggs) [9]	efficacy (dead or moribund ticks) ([10]; application rate 1 μg/cm^2)	efficacy (dead or moribund ticks) ([10]; application rate 5 μg/cm^2)	efficacy in % [11]	efficacy in % [12]
CNC(=O)c1cc(-c2cnn(-c3c(C(F)(F)F)c(C(F)(F)C(F)(F)F)nn3C)c2)ccc1Cl [Ic-152]	100%	100%	100%	100%	100%	100%	100%	100%	100%	100%	100%	100%	100%	100%
Cn1nc(C(F)(F)C(F)(F)F)c(C(F)(F)F)c1-n1cc(-c2ccc(Cl)c(C(=O)NCC(N)=O)c2)cn1 [Ic-156]	100%	90%	–	100%	–	–	100%	–	–	90%	–	–	100%	90%
